The text below walks through data of patent publication US6599932B1, “Alpha, beta-unsaturated sulfones for treating proliferative disorders” (Temple University-Of The Commonwealth System of Higher …, priority 2000, dated 2003).

Each structure is given as a SMILES string. Bounds are passed on as bounds.

Assay type in all cases: cell-based
Common to all, as to parameters: dose or concentration left out as unconfirmed

Experiment [1] deals with breast tumor cell line BT-20. Briefly: Viability assay, Trypan blue exclusion, breast tumor cell line BT-20. Particulars: for cytotoxicity: Homo sapiens, BT-20, 96 hours, read-out: percent cell death (% Death), BT20; for percent cell death (% Death), BT20: 96 hours. As to the method: (§1) The effect of the sulfones on normal fibroblasts and on tumor cells of prostate, colon, lung and breast origin was examined utilizing the following cell lines: prostate tumor cell line DU-145; colorectal carcinoma cell line DLD-1; non-small cell lung carcinoma cell line H157; and breast tumor cell line BT-20. BT-20 is an estrogen-unresponsive cell line. NIH/3T3 and HFL are normal murine and human fibroblasts, respectively. BT-20, DLD-1 and H157 were grown in Dulbecco's modified Eagle's medium (DMEM) containing 10% fetal bovine serum supplemented with penicillin and streptomycin. DU145 was cultured in RPMI with 10% fetal bovine serum containing penicillin and streptomycin. NIH3T3 and HFL cells were grown in DMEM containing 10% calf serum supplemented with penicillin and streptomycin. All cell cultures were maintained at 37° C. in a humidified atmosphere of 5% CO2.
(§2) Cells were treated with test compound […] concentration and cell viability was determined after 96 hours by the Trypan blue exclusion method. Activity for each compound is reported as a range of cell induced death (% Death) with the lowest activity in the range of 5-10%.

Experiment [2] deals with colorectal carcinoma cell line DLD-1. Nature of the experiment: Viability assay, Trypan blue exclusion, colorectal carcinoma cell line DLD-1. Conditions: for cytotoxicity: Homo sapiens, DLD-1, 96 hours, read-out: percent cell death (% Death), DLD-1; for percent cell death (% Death), DLD-1: 96 hours. As to the method: as §1, §2
The test system of experiment [3] is non-small cell lung carcinoma cell line H157. Briefly: Viability assay, Trypan blue exclusion, non-small cell lung carcinoma cell line H157. Particulars: for cytotoxicity: Homo sapiens, NCI-H157, 96 hours, read-out: percent cell death (% Death), H157; for percent cell death (% Death), H157: 96 hours. Here is the method: as §1, §2
Experiment [4] concerns prostate tumor cell line DU-145. Briefly: Viability assay, Trypan blue exclusion, prostate tumor cell line DU-145. Conditions: for cytotoxicity: Homo sapiens, DU-145, 96 hours, read-out: percent cell death (% Death), DU145; for percent cell death (% Death), DU145: 96 hours. Here is the method:
as §1, §2

For `O=S(=O)(/C=C/c1cccc2ccccc12)Cc1ccc(Cl)cc1` [Example 64, (E)-1-Naphthaleneethenyl-4-chlorobenzylsulfone], the cytotoxicity in experiment [1], in experiment [2], in experiment [3] and in experiment [4] was 10 to 15% each time.
Consider `O=S(=O)(/C=C/c1ccc(Br)s1)Cc1ccc(F)cc1` [Example 16, (E)-5-Bromo-2-thiopheneethenyl-4-fluorobenzylsulfone], for which the cytotoxicity in experiment [1], in experiment [2], in experiment [3] and in experiment [4] was 5 to 10% each time.
On to `O=[N+]([O-])c1ccc(CS(=O)(=O)/C=C/c2ccsc2)cc1` [Example 32, (E)-3-Thiopheneethenyl4-nitrobenzylsulfone], for which the cytotoxicity in experiment [1], in experiment [2], in experiment [3] and in experiment [4] was 5 to 10% each time.
For `O=[N+]([O-])c1ccc(/C=C/S(=O)(=O)Cc2cccc3ccccc23)cc1` [Example 73, (E)-4-Nitrostyryl-1-(naphthylmethyl)sulfone], the cytotoxicity in experiment [1] lay in the range of 5 to 10%; in experiment [2] it was 5 to 10%; in experiment [3] it was 10 to 15%; in experiment [4] it was 5 to 10%.
Consider `O=S(=O)(/C=C/c1ccc2ccccc2c1)Cc1ccc(Br)cc1` [Example 67, (E)-2-Naphthaleneethenyl-4-bromobenzylsulfone], for which the cytotoxicity in experiment [1], in experiment [2], in experiment [3] and in experiment [4] was 5 to 10% each time.
On to `COc1ccc(CS(=O)(=O)/C=C/c2csc([N+](=O)[O-])c2)cc1` [Example 58, (E)-2-Nitro-4-thiopheneethenyl-4-methoxybenzylsulfone], for which the cytotoxicity in experiment [1] was 40 to 50%; in experiment [2], above 80%; in experiment [3], above 80%; in experiment [4], 50 to 60%.
As to `O=[N+]([O-])c1cccc(/C=C/S(=O)(=O)Cc2cccc3ccccc23)c1` [Example 72, (E)-3-Nitrostyryl-1-(naphthylmethyl)sulfone], the cytotoxicity in experiment [1] and in experiment [4] was 5 to 10% throughout.
`O=S(=O)(/C=C/c1ccoc1)Cc1ccc(Cl)c(Cl)c1` [Example 49, (E)-3-Furanethenyl-3,4-dichlorobenzylsulfone]: the cytotoxicity in experiment [1] was 50 to 60%; in experiment [2] it was 50 to 60%; in experiment [3], 50 to 60%; in experiment [4], above 80%.
Regarding `O=S(=O)(/C=C/c1ccc(F)cc1)Cc1cccc2ccccc12` [Example 68, (E)-4-Fluorostyryl-1-(naphthylmethyl)sulfone], the cytotoxicity in experiment [1], in experiment [2], in experiment [3] and in experiment [4] was 5 to 10% in each case.
`O=S(=O)(/C=C/c1ccccn1)Cc1ccc(Cl)cc1` [Example 4, (E)-2-Pyridineethenyl-4-chlorobenzylsulfone]: the cytotoxicity in experiment [1], in experiment [2], in experiment [3] and in experiment [4] was 5 to 10% throughout.
For `O=S1(=O)C=CC(/C=C/S(=O)(=O)Cc2ccc(Br)cc2)=C1` [Example 35, (E)-3-Thiophene-1,1-dioxoethenyl-4-bromobenzylsulfone], the “percent cell death (% Death), BT20” value in experiment [1] is reported as “+ ((+)=5-10%)”. Besides, in experiment [2], the “percent cell death (% Death), DLD-1” value is given as “+ ((+)=5-10%)”. For the same compound, the “percent cell death (% Death), H157” value in experiment [3] is recorded as “+ ((+)=5-10%)”. Besides, the “percent cell death (% Death), DU145” value in experiment [4] is “+ ((+)=5-10%)”.
As to `O=S1(=O)C=CC(/C=C/S(=O)(=O)Cc2ccc(F)cc2)=C1` [Example 33, (E)-3-Thiophene-1,1-dioxoethenyl-4-fluorobenzylsulfone], in experiment [1], the “percent cell death (% Death), BT20” value was “+ ((+)=5-10%)”. The “percent cell death (% Death), DLD-1” value in experiment [2] is reported as “+ ((+)=5-10%)”. Further, the “percent cell death (% Death), H157” value in experiment [3] is recorded as “+ ((+)=5-10%)”. In addition, the “percent cell death (% Death), DU145” value in experiment [4] is on record as “+ ((+)=5-10%)”.
Turning to `O=S(=O)(/C=C/c1cccs1)Cc1ccc(Br)cc1` [Example 12, (E)-2-Thiopheneethenyl-4-bromobenzylsulfone], the cytotoxicity in experiment [1], in experiment [2], in experiment [3] and in experiment [4] was 5 to 10% throughout.
With `O=S(=O)(/C=C/c1cccnc1)Cc1ccc(Br)cc1` [Example 8, (E)-3-Pyridineethenyl-4-bromobenzylsulfone], the cytotoxicity in experiment [1], in experiment [2], in experiment [3] and in experiment [4] was 10 to 15% in each case.
`O=[N+]([O-])c1cc(/C=C/S(=O)(=O)Cc2ccc(Cl)cc2)cs1` [Example 55, (E)-2-Nitro-4-thiopheneethenyl-4-chlorobenzylsulfone]: the cytotoxicity in experiment [1] lay in the range of 5 to 10%; in experiment [2], 50 to 60%; in experiment [3] it was 5 to 10%; in experiment [4], 10 to 15%.
In the case of `O=S(=O)(/C=C/c1cccs1)Cc1ccc(F)cc1` [Example 10, (E)-2-Thiopheneethenyl-4-fluorobenzylsulfone], the cytotoxicity in experiment [1], in experiment [2], in experiment [3] and in experiment [4] was 5 to 10% in each case.
Turning to `O=S(=O)(/C=C/c1ccoc1)Cc1ccc(Cl)cc1Cl` [Example 48, (E)-3-Furanethenyl-2,4-dichlorobenzylsulfone], the cytotoxicity in experiment [1], in experiment [2], in experiment [3] and in experiment [4] was above 80% in each case.
As to `O=[N+]([O-])c1cc(/C=C/S(=O)(=O)Cc2ccc(I)cc2)cs1` [Example 56, (E)-2-Nitro-4-thiopheneethenyl-4-iodobenzylsulfone], the cytotoxicity in experiment [1], in experiment [2], in experiment [3] and in experiment [4] was 5 to 10% throughout.
For `O=S(=O)(/C=C/c1cccc2ccccc12)Cc1ccc(F)cc1` [Example 62, (E)-1-Naphthaleneethenyl-4-fluorobenzylsulfone], the cytotoxicity in experiment [1], in experiment [2], in experiment [3] and in experiment [4] was 5 to 10% each time.
As to `N#Cc1ccc(CS(=O)(=O)/C=C/c2ccsc2)cc1` [Example 31, (E)-3-Thiopheneethenyl-4-cyanobenzylsulfone], the cytotoxicity in experiment [1], in experiment [2], in experiment [3] and in experiment [4] was 5 to 10% throughout.
Consider `O=S1(=O)C=CC(/C=C/S(=O)(=O)Cc2ccc(Cl)cc2Cl)=C1` [Example 37, (E)-3-Thiophene-1,1-dioxoethenyl-2,4-dichlorobenzylsulfone], for which, in experiment [1], the “percent cell death (% Death), BT20” value was “++ ((++)=10-15%)”. Further, the “percent cell death (% Death), DLD-1” value in experiment [2] is “++ ((++)=10-15%)”. Moreover, in experiment [3], the “percent cell death (% Death), H157” value is given as “++ ((++)=10-15%)”. Also, the “percent cell death (% Death), DU145” value in experiment [4] was “++ ((++)=10-15%)”.
As to `O=S(=O)(/C=C/c1ccsc1)Cc1ccc(Br)cc1` [Example 24, (E)-3-Thiopheneethenyl-4-bromobenzylsulfone], the cytotoxicity in experiment [1], in experiment [2], in experiment [3] and in experiment [4] was 40 to 50% in each case.
Regarding `O=S(=O)(/C=C/c1ccc(Cl)cc1)Cc1cccc2ccccc12` [Example 69, (E)-4-Chlorostyryl-1-(naphthylmethyl)sulfone], the cytotoxicity in experiment [1], in experiment [2], in experiment [3] and in experiment [4] was 5 to 10% throughout.
For `O=S1(=O)C=CC(/C=C/S(=O)(=O)Cc2ccc(Cl)cc2)=C1` [Example 34, (E)-3-Thiophene-1,1-dioxoethenyl-4chlorobenzylsulfone], the “percent cell death (% Death), BT20” value in experiment [1] was “+ ((+)=5-10%)”. Further, in experiment [2], the “percent cell death (% Death), DLD-1” value is “+ ((+)=5-10%)”. Further, in experiment [3], the “percent cell death (% Death), H157” value is “+ ((+)=5-10%)”. Besides, in experiment [4], the “percent cell death (% Death), DU145” value was “+ ((+)=5-10%)”.
As for `O=S(=O)(/C=C/c1cccc2ccccc12)Cc1ccc(Br)cc1` [Example 66, (E)-1-Naphthaleneethenyl-4-bromobenzylsulfone], the cytotoxicity in experiment [1], in experiment [2], in experiment [3] and in experiment [4] was 10 to 15% in each case.
Consider `O=S(=O)(/C=C/c1ccoc1)Cc1ccc(Cl)cc1` [Example 42, (E)-3-Furanethenyl-4-chlorobenzylsulfone], for which the cytotoxicity in experiment [1], in experiment [2], in experiment [3] and in experiment [4] was above 80% each time.
Regarding `O=[N+]([O-])c1ccccc1/C=C/S(=O)(=O)Cc1cccc2ccccc12` [Example 71, (E)-2-Nitrostyryl-1-(naphthylmethyl)sulfone], the cytotoxicity in experiment [1] and in experiment [4] was 40 to 50% in each case.
